{
  "source": "patent US9067894B1",
  "about": "“Compound, composition, and method of activating GIRK potassium channel and use of same for treating conditions of interest” (Vanderbilt University, priority 2013, dated 2015)",
  "key": {"Purinergic P2X": {"test_system": "Purinergic P2X", "assay": "Radioligand displacement (Ricerca)", "format": "binding, rabbit", "settings": "10 μM"}, "hERG potassium channel": {"molecular_target": "T1, hERG potassium channel (Homo sapiens, UniProt Q12809)", "T1 construct": "expressed in transfected cells; host or cells: T-REx-293", "T1 sequence (Q12809 whole entry)": "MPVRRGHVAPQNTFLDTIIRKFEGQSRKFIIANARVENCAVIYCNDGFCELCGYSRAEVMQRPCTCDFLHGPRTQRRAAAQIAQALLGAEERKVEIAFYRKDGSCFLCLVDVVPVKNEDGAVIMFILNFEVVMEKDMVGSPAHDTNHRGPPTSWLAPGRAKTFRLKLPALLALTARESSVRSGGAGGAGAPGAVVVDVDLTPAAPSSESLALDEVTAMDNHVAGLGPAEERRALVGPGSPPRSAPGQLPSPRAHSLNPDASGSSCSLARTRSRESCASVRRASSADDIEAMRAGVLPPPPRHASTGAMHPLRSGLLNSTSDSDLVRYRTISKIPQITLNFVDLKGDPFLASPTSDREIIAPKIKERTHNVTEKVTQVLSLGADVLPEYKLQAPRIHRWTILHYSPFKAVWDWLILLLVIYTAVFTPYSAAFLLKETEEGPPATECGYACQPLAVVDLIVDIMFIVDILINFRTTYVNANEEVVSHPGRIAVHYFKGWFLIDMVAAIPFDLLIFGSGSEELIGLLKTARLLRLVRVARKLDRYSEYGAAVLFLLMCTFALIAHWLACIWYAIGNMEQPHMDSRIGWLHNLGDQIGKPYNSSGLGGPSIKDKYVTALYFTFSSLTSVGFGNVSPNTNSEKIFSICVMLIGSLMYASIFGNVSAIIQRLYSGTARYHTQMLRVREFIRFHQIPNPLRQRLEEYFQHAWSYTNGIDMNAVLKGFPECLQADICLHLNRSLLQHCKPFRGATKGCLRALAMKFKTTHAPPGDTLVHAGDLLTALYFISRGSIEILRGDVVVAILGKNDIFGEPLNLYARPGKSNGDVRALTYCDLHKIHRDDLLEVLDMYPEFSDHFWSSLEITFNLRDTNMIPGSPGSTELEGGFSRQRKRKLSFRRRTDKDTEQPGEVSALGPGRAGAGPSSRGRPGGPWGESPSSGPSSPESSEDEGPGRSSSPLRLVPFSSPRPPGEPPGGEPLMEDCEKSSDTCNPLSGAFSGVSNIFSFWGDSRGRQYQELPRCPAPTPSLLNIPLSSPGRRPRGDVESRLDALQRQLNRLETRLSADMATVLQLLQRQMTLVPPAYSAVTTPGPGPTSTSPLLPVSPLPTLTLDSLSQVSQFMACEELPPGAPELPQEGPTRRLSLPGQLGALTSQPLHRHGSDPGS", "assay": "Thallium flux assay, hERG-expressing cells", "format": "cell-based", "settings": "hERG inhibition, thallium flux", "source_text": "(§1) Cell Line Construction and Cell Culture. HEK-293 cells co-expressing human GIRK1/2 and rat mGlu8 were generated as previously described (Niswender et al., 2008). A HEK-293 cell line (ATCC, Manassas, Va.) expressing human GIRK1 and human GIRK2 was constructed by transfecting HEK-293 cells with GIRK1 and GIRK2 (Origene, Rockville, Md.) cloned into the pBudCE4.1 vector (Life Technologies, Carlsbad, Calif.) using FuGene 6 (Promega, Madison, Wis.) transfection reagent. Unless otherwise noted, other ion channel-expressing cells were prepared by transfecting HEK-293 cells with individual or combinations of subunits: GIRK1, pCMV6-A-BSD; GIRK2, pCMV6-A-puro; GIRK3, pCMV6-A-hygro; GIRK4, pCMV6-A-AC; Kv7.4, pIRESneo3. The Kir2.1 and hERG-expressing cell lines were made by transfecting T-REx-293 cells (Life Technologies, Carlsbad, Calif.) with Kir2.1 and Kv11.1, respectively, cloned into pcDNA5TO. Monoclonal cell lines were produced by limiting-dilution cloning of antibiotic-resistant cells and functional selection using the thallium flux assay described below. Unless otherwise noted, cells were maintained in Minimal Essential Medium, Alpha Medium (Mediatech, Manassas, Va.) supplemented with 10% fetal bovine serum (Sigma-Aldrich, Saint Louis, Mo.) and GlutaGro (Mediatech, Manassas, Va.), referred to henceforth as cell culture medium. Cell culture medium was further supplemented with selection antibiotics, as appropriate.\n(§2) For thallium flux assays, cells were dislodged from tissue culture flasks using TrypLE Express (Life Technologies, Carlsbad, Calif.), transferred to a 50 mL centrifuge tube, and spun at 500×g for 2 min. The supernatant solution was removed by aspiration and the pellet was resuspended at concentration of ˜1000 cells/μL. Twenty μL/well of the cell suspension was transferred to 384-well, amine-coated assay plates (cat#354719, BD, Franklin Lakes, N.J.) using an electronic multichannel pipette. Plated cells were incubated overnight in a humidified 5% CO2 cell culture incubator at 37° C. […]"}, "hERG (Kv11.1)": {"molecular_target": "T2, hERG (Kv11.1) (Homo sapiens, UniProt Q12809)", "T2 construct": "expressed in transfected cells; host or cells: T-REx-293", "T2 sequence (Q12809 whole entry)": "as above", "assay": "Thallium flux assay, hERG-expressing cells", "format": "cell-based", "settings": "human, T-REx-293 cells expressing hERG (Kv11.1), pH 7.3, at 100 μM; 100% inhibition defined by maximally effective dofetilide; read-out: maximum inhibition of hERG", "source_text": "as §1, §2"}, "GIRK1/2": {"molecular_target": "T3, GIRK1/2 (Homo sapiens, UniProt P48051+P48549)", "T3 sequence (P48549 1-501)": "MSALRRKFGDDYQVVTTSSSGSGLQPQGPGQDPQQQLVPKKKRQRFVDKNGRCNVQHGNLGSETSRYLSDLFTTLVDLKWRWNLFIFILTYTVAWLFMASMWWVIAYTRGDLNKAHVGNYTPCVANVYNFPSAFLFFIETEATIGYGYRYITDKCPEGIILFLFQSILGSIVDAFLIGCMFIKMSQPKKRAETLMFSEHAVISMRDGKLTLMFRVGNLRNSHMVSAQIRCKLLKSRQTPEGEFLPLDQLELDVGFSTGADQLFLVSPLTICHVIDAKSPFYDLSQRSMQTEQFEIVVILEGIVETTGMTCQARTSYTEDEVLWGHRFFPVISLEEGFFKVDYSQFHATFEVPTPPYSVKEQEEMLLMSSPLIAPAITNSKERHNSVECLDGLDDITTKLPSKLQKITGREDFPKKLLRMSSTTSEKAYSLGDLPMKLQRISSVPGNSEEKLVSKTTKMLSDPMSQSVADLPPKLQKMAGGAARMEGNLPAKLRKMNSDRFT", "T3 sequence (P48051 1-423)": "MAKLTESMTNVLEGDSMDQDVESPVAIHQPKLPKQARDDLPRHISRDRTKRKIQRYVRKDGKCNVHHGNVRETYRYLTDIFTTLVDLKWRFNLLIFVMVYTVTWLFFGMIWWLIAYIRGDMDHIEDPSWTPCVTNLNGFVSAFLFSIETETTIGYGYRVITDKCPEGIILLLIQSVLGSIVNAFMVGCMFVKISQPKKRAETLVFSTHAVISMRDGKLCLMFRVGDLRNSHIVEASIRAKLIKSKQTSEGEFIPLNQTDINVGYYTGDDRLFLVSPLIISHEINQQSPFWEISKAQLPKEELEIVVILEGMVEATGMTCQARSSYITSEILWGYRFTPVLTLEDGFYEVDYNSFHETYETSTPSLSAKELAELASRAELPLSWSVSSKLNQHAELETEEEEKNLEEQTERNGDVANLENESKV", "assay": "Thallium flux, pertussis toxin-treated cells co-expressing mGlu8 and GIRK1/2", "format": "cell-based", "parameters": "host or cells: HEK-293", "settings": "600 ng/ml pertussis toxin; VU0456810 10 μM, glutamate 100 μM", "source_text": "as §1, with “Cell culture medium was further supplemented with selection antibiotics, as appropriate.” left out"}, "Interleukin IL-1": {"molecular_target": "T4, Interleukin IL-1 (Mus musculus, UniProt P13504)", "T4 construct": "Ricerca (contract laboratory that ran the panel)", "T4 sequence (P13504 20-576)": "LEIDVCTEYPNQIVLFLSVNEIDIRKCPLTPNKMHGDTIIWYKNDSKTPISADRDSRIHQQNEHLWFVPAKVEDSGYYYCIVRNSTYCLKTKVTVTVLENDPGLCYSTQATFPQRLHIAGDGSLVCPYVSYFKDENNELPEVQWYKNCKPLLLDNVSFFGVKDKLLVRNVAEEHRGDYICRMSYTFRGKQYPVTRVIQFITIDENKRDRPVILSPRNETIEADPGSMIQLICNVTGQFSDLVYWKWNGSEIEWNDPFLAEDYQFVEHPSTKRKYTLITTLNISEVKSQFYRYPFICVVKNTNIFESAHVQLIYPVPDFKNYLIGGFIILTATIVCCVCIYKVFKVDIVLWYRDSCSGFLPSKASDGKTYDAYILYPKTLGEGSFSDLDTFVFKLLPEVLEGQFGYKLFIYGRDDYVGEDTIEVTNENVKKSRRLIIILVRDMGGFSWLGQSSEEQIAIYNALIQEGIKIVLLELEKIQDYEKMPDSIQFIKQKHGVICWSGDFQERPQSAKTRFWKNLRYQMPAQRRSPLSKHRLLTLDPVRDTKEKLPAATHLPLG", "assay": "Radioligand displacement (Ricerca)", "format": "binding"}},
  "note": "Where two headings read alike, the source gives them in different places.",
  "data": [
    {"smiles": "Cc1cc(NC(=O)Nc2ccc(F)c(F)c2)n(-c2ccccc2)n1", "note": "[VU0456810, 1-(3,4-difluorophenyl)-3-(3-methyl-1-phenyl-1H-pyrazol-5-yl)urea]", "values": [
      {"measurement": "% Inhibition", "setting": "Purinergic P2X", "value": 16, "unit": "%"},
      {"measurement": "IC50", "setting": "hERG potassium channel; read-out: IC50", "value": "~10", "unit": "µM"},
      {"measurement": "IC50", "setting": "hERG potassium channel; average ± SEM, read-out: Potency", "value": "10.1 ± 7", "unit": "µM"},
      {"measurement": "inhibition at 20 min, 100 µM", "setting": "hERG (Kv11.1)", "value": "~60", "unit": "%"},
      {"measurement": "effect of pertussis toxin treatment on evoked thallium flux", "setting": "GIRK1/2", "value": "unable to block"},
      {"measurement": "inhibition at 10 µM", "setting": "Interleukin IL-1", "value": 2, "unit": "%"}
    ]}
  ]
}
